Values after ≈ are worked out from the molar mass of the structure shown. Where two headings read alike, the source gives them in different places. Positions of bridges follow the written chain, without caps; N, C: chain ends. Non-standard residues stand in square brackets, D forms with d. Residues, ends and D or L forms follow the SMILES beside them. *: point of attachment. Benzoyl(4-(4-Cl-Ph)) = O=C(c1ccc(-c2ccc(Cl)cc2)cc1)*; Benzoyl(3-CF3) = O=C(c1cccc(C(F)(F)F)c1)*; Benzoyl(3-Ph) = O=C(c1cccc(-c2ccccc2)c1)*; Benzoyl(4-Ph) = O=C(c1ccc(-c2ccccc2)cc1)*; Butanoyl(4-Ph) = O=C(CCCc1ccccc1)*; Octanoyl(6-Me) = CCC(C)CCCCC(=O)*; Nonanoyl = CCCCCCCCC(=O)*; Octanoyl = CCCCCCCC(=O)*; Dab = NCC[C@H](N)C(=O)O; Abu = CC[C@H](N)C(=O)O; Dap = NC[C@H](N)C(=O)O; Aib = CC(C)(N)C(=O)O
Experiments:
Enterobacter cloacae = tested on: Enterobacter cloacae
Method in brief: (§1)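 Lipopeptide TFA salts are serially diluted in cation-adjusted Mueller-Hinton broth and inoculated per the CLSI M100-S18 broth microdilution method. The MIC is then recorded, with polymyxin B sulphate included as a control.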

Klebsiella pneumoniae = tested on: Klebsiella pneumoniae
Method in brief: as §1

Pseudomonas aeruginosa = tested on: Pseudomonas aeruginosa
Method in brief: as §1

Acinetobacter baumannii = tested on: Acinetobacter baumannii
Method in brief: as §1

A. baumannii ATCC 19606 = experiment: In vivo efficacy in mouse blood infection model (neutropenic Swiss mice); settings: compound, free base 4 mg/kg intravenously 2 h after inoculation, blood at 4 h
Method in brief: (§2)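 Activity expressed as Δlog10 CFU/mL blood, treated minus saline control, 4 h after a single 4 mg/kg (free base) i.v. dose given 2 h post-infection. Bloodstream infection from i.v. early log-phase inoculum in Swiss mice made neutropenic by i.p. cyclophosphamide on days −4 (150 mg/kg) and −1 (100 mg/kg).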

P. aeruginosa ATCC 27853 = experiment: as above; settings: compound, free base 4 mg/kg intravenously 2 h after inoculation, blood at 4 h
Method in brief: as §2

[1] = Enterobacter cloacae FADDI-EC001, broth microdilution in CAMHB, TFA salt
[2] = Enterobacter cloacae FADDI-EC003, broth microdilution in CAMHB, TFA salt
[3] = Enterobacter cloacae FADDI-EC006, broth microdilution in CAMHB, TFA salt
[4] = Pseudomonas aeruginosa ATCC 27853, broth microdilution in CAMHB, TFA salt
[5] = Pseudomonas aeruginosa FADDI-PA022, broth microdilution in CAMHB, TFA salt
[6] = Pseudomonas aeruginosa FADDI-PA025, broth microdilution in CAMHB, TFA salt
[7] = Acinetobacter baumannii ATCC 17978, broth microdilution in CAMHB, TFA salt
[8] = Acinetobacter baumannii ATCC 19606, broth microdilution in CAMHB, TFA salt
[9] = Acinetobacter baumannii FADDI-AB034, broth microdilution in CAMHB, TFA salt

SMILES | MIC (Klebsiella pneumoniae) [µg/mL] | MIC (Pseudomonas aeruginosa) [µg/mL] | MIC (Acinetobacter baumannii) [µg/mL] | Minimum inhibitory concentration (MIC), Ec FADDI-EC001 (Enterobacter cloacae; [1]) [µg/mL] | Minimum inhibitory concentration (MIC), Ec FADDI-EC003 (Enterobacter cloacae; [2]) [µg/mL] | Minimum inhibitory concentration (MIC), Ec FADDI-EC006 (Enterobacter cloacae; [3]) [µg/mL] | MIC (Klebsiella pneumoniae; K. pneumoniae FADDI-KP032) [µg/mL] | MIC (Pseudomonas aeruginosa; P. aeruginosa ATCC 27853) [µg/mL] | Minimum inhibitory concentration (MIC), Pa ATCC 27853 (Pseudomonas aeruginosa; [4]) [µg/mL] | Minimum inhibitory concentration (MIC), Pa FADDI-PA022 (Pseudomonas aeruginosa; [5]) [µg/mL] | Δ log (Treated-Control at 4 h) (P. aeruginosa ATCC 27853) [log10 CFU/mL] | Minimum inhibitory concentration (MIC), Ec FADDI-EC001 (Enterobacter cloacae) [µg/mL] | Minimum inhibitory concentration (MIC), Ec FADDI-EC003 (Enterobacter cloacae) [µg/mL] | Minimum inhibitory concentration (MIC), Ec FADDI-EC006 (Enterobacter cloacae) [µg/mL] | Minimum inhibitory concentration (MIC), Pa ATCC 27853 (Pseudomonas aeruginosa) [µg/mL] | Minimum inhibitory concentration (MIC), Pa FADDI-PA022 (Pseudomonas aeruginosa) [µg/mL] | Minimum inhibitory concentration (MIC), Pa FADDI-PA025 (Pseudomonas aeruginosa) [µg/mL] | Minimum inhibitory concentration (MIC), Ab ATCC 17978 (Acinetobacter baumannii) [µg/mL] | Minimum inhibitory concentration (MIC), Ab ATCC 19606 (Acinetobacter baumannii) [µg/mL] | Minimum inhibitory concentration (MIC), Ab FADDI-AB034 (Acinetobacter baumannii) [µg/mL] | also measured
CC[C@@H]1NC(=O)[C@@H](CC(C)C)NC(=O)[C@H](CCN)NC(=O)[C@@H](NC(=O)[C@@H](CO)NC(=O)[C@@H](NC(=O)[C@H](CCN)NC(=O)c2cccc(C(F)(F)F)c2)[C@@H](C)O)CCNC(=O)[C@H]([C@@H](C)O)NC(=O)[C@H](CCN)NC(=O)[C@H](CCN)NC1=O [Compound 18] ({Benzoyl(3-CF3)}-[Dab]T[dS][Dab][Dab][dL][Abu][Dab][Dab]T; lactam 4-C) | 0.25 (≈ 0.215 µM) | 8 (≈ 6.89 µM) | 0.5 (≈ 0.431 µM) | – | – | – | – | – | – | – | – | – | – | – | – | – | – | – | – | – | Minimum inhibitory concentration, Ec FADDI-EC001 (Enterobacter cloacae): 1 µg/mL (≈ 0.862 µM); Minimum inhibitory concentration, Ec FADDI-EC003 (Enterobacter cloacae): 0.5 µg/mL (≈ 0.431 µM); Minimum inhibitory concentration, Ec FADDI-EC006 (Enterobacter cloacae): 0.5 µg/mL (≈ 0.431 µM); Minimum inhibitory concentration, Pa ATCC 27853 (Pseudomonas aeruginosa): 8 µg/mL (≈ 6.89 µM); Minimum inhibitory concentration, Pa FADDI-PA022 (Pseudomonas aeruginosa): 8 µg/mL (≈ 6.89 µM); Minimum inhibitory concentration, Pa FADDI-PA025 (Pseudomonas aeruginosa): 2 µg/mL (≈ 1.72 µM); Minimum inhibitory concentration, Ab A ATCC 17978 (Acinetobacter baumannii): 0.5 µg/mL (≈ 0.431 µM); Minimum inhibitory concentration, Ab ATCC 19606 (Acinetobacter baumannii): 0.5 µg/mL (≈ 0.431 µM); Minimum inhibitory concentration, Ab FADDI-AB034 (Acinetobacter baumannii): 0.5 µg/mL (≈ 0.431 µM); Δ log (Treated-Control at 4 h) (A. baumannii ATCC 19606): −1.57 log10 CFU/mL
CC[C@@H]1NC(=O)[C@@H](CC(C)C)NC(=O)[C@H](CCN)NC(=O)[C@@H](NC(=O)[C@H](CN)NC(=O)[C@@H](NC(=O)[C@H](CCN)NC(=O)c2cccc(-c3ccccc3)c2)[C@@H](C)O)CCNC(=O)[C@H]([C@@H](C)O)NC(=O)[C@H](CCN)NC(=O)[C@H](CCN)NC1=O [Compound 138] ({Benzoyl(3-Ph)}-[Dab]T[Dap][Dab][Dab][dL][Abu][Dab][Dab]T; lactam 4-C) | – | – | – | 0.5 | 1 | 0.5 | 0.5 (≈ 0.428 µM) | 1 (≈ 0.857 µM) | 1 | 2 | −2.98 | – | – | – | – | – | – | – | – | – | Minimum inhibitory concentration (MIC), Pa FADDI-PA025 (Pseudomonas aeruginosa; [6]): 1 µg/mL; MIC (Acinetobacter baumannii; A. baumannii ATCC 19606): 1 µg/mL (≈ 0.857 µM); Minimum inhibitory concentration (MIC), Ab ATCC 17978 (Acinetobacter baumannii; [7]): 0.5 µg/mL; Minimum inhibitory concentration (MIC), Ab ATCC 19606 (Acinetobacter baumannii; [8]): 1 µg/mL; Minimum inhibitory concentration (MIC), Ab FADDI-AB034 (Acinetobacter baumannii; [9]): 0.5 µg/mL
CCC(C)CCCCC(=O)N[C@@H](CCN)C(=O)N[C@H](C(=O)N[C@@H](CN)C(=O)N[C@H]1CCNC(=O)[C@H]([C@@H](C)O)NC(=O)[C@H](CCN)NC(=O)[C@H](CCN)NC(=O)[C@H](CC)NC(=O)[C@@H](CC(C)C)NC(=O)[C@H](CCN)NC1=O)[C@@H](C)O (stereo partly drawn) [Compound 139] ({Octanoyl(6-Me)}-[Dab]T[Dap][Dab][Dab][dL][Abu][Dab][Dab]T; lactam 4-C) | <0.125 | 1 (≈ 0.887 µM) | 0.5 (≈ 0.443 µM) | – | – | – | – | – | – | – | −3.19 | 0.5 (≈ 0.443 µM) | 0.25 (≈ 0.222 µM) | 1 (≈ 0.887 µM) | 1 (≈ 0.887 µM) | 2 (≈ 1.77 µM) | 1 (≈ 0.887 µM) | 0.25 (≈ 0.222 µM) | 0.5 (≈ 0.443 µM) | 0.25 (≈ 0.222 µM) | –
CCCCCCCC(=O)N[C@@H](CCN)C(=O)N[C@H](C(=O)N[C@@H](CN)C(=O)N[C@H]1CCNC(=O)[C@H]([C@@H](C)O)NC(=O)[C@H](CCN)NC(=O)[C@H](CCN)NC(=O)C(C)(C)NC(=O)[C@@H](Cc2ccccc2)NC(=O)[C@H](CCN)NC1=O)[C@@H](C)O [Compound 140] (Octanoyl-[Dab]T[Dap][Dab][Dab][dF][Aib][Dab][Dab]T; lactam 4-C) | 0.25 (≈ 0.218 µM) | 1 (≈ 0.872 µM) | 2 (≈ 1.74 µM) | – | – | – | – | – | – | – | −3.27 | 0.5 (≈ 0.436 µM) | 0.25 (≈ 0.218 µM) | 1 (≈ 0.872 µM) | 1 (≈ 0.872 µM) | 1 (≈ 0.872 µM) | 4 (≈ 3.49 µM) | 0.5 (≈ 0.436 µM) | 2 (≈ 1.74 µM) | 1 (≈ 0.872 µM) | –
CC[C@@H]1NC(=O)[C@@H](CC(C)C)NC(=O)[C@H](CCN)NC(=O)[C@@H](NC(=O)[C@H](CN)NC(=O)[C@@H](NC(=O)[C@H](CCN)NC(=O)c2ccc(-c3ccccc3)cc2)[C@@H](C)O)CCNC(=O)[C@H]([C@@H](C)O)NC(=O)[C@H](CCN)NC(=O)[C@H](CCN)NC1=O [Compound 142] ({Benzoyl(4-Ph)}-[Dab]T[Dap][Dab][Dab][dL][Abu][Dab][Dab]T; lactam 4-C) | – | – | – | 0.25 | 1 | 0.5 | 0.25 (≈ 0.214 µM) | 1 (≈ 0.857 µM) | 1 | 1 | −3.89 | – | – | – | – | – | – | – | – | – | Minimum inhibitory concentration (MIC), Pa FADDI-PA025 (Pseudomonas aeruginosa; [6]): 1 µg/mL; MIC (Acinetobacter baumannii; A. baumannii ATCC 19606): 1 µg/mL (≈ 0.857 µM); Minimum inhibitory concentration (MIC), Ab ATCC 17978 (Acinetobacter baumannii; [7]): 0.5 µg/mL; Minimum inhibitory concentration (MIC), Ab ATCC 19606 (Acinetobacter baumannii; [8]): 1 µg/mL; Minimum inhibitory concentration (MIC), Ab FADDI-AB034 (Acinetobacter baumannii; [9]): 0.25 µg/mL
CCCCCCCCC(=O)N[C@@H](CCN)C(=O)N[C@H](C(=O)N[C@@H](CN)C(=O)N[C@H]1CCNC(=O)[C@H]([C@@H](C)O)NC(=O)[C@H](CCN)NC(=O)[C@H](CCN)NC(=O)[C@H](CO)NC(=O)[C@@H](Cc2ccccc2)NC(=O)[C@H](CCN)NC1=O)[C@@H](C)O [Compound 143] (Nonanoyl-[Dab]T[Dap][Dab][Dab][dF]S[Dab][Dab]T; lactam 4-C) | 0.25 (≈ 0.215 µM) | 0.5 (≈ 0.43 µM) | 1 (≈ 0.86 µM) | – | – | – | – | – | – | – | −3.47 | 1 (≈ 0.86 µM) | 0.5 (≈ 0.43 µM) | 0.5 (≈ 0.43 µM) | 0.5 (≈ 0.43 µM) | 0.5 (≈ 0.43 µM) | 16 (≈ 13.8 µM) | 1 (≈ 0.86 µM) | 1 (≈ 0.86 µM) | 0.5 (≈ 0.43 µM) | –
CC(C)C[C@H]1NC(=O)[C@H](CCN)NC(=O)[C@@H](NC(=O)[C@H](CN)NC(=O)[C@@H](NC(=O)[C@H](CCN)NC(=O)c2ccc(-c3ccc(Cl)cc3)cc2)[C@@H](C)O)CCNC(=O)[C@H]([C@@H](C)O)NC(=O)[C@H](CCN)NC(=O)[C@H](CCN)NC(=O)[C@H](C)NC1=O [Compound 144] ({Benzoyl(4-(4-Cl-Ph))}-[Dab]T[Dap][Dab][Dab][dL]A[Dab][Dab]T; lactam 4-C) | – | – | – | 2 | 1 | 1 | 1 (≈ 0.842 µM) | 1 (≈ 0.842 µM) | 1 | 2 | −2.98 | – | – | – | – | – | – | – | – | – | Minimum inhibitory concentration (MIC), Pa FADDI-PA025 (Pseudomonas aeruginosa; [6]): 1 µg/mL; MIC (Acinetobacter baumannii; A. baumannii ATCC 19606): 1 µg/mL (≈ 0.842 µM); Minimum inhibitory concentration (MIC), Ab ATCC 17978 (Acinetobacter baumannii; [7]): 1 µg/mL; Minimum inhibitory concentration (MIC), Ab ATCC 19606 (Acinetobacter baumannii; [8]): 1 µg/mL; Minimum inhibitory concentration (MIC), Ab FADDI-AB034 (Acinetobacter baumannii; [9]): 0.5 µg/mL
CC(C)C[C@H]1NC(=O)[C@H](CCN)NC(=O)[C@@H](NC(=O)[C@H](CN)NC(=O)[C@@H](NC(=O)[C@H](CCN)NC(=O)CCCc2ccccc2)[C@@H](C)O)CCNC(=O)[C@H]([C@@H](C)O)NC(=O)[C@H](CCN)NC(=O)[C@H](CCN)NC(=O)[C@H](C)NC1=O [Compound 146] ({Butanoyl(4-Ph)}-[Dab]T[Dap][Dab][Dab][dL]A[Dab][Dab]T; lactam 4-C) | 0.5 (≈ 0.447 µM) | 0.5 (≈ 0.447 µM) | 4 (≈ 3.57 µM) | – | – | – | – | – | – | – | −3.63 | 0.5 (≈ 0.447 µM) | 0.25 (≈ 0.223 µM) | 0.5 (≈ 0.447 µM) | 0.5 (≈ 0.447 µM) | 0.5 (≈ 0.447 µM) | >32 | 1 (≈ 0.893 µM) | 4 (≈ 3.57 µM) | 2 (≈ 1.79 µM) | –

— patent USRE48335E1, “Polymyxin derivatives as antimicrobial compounds” (priority 2014, dated 2020)
